Several values for one entry are separate records, joined by “and”; a condition that tells them apart may be missing. Equal entries are not always repeated.
Biological target: T1, human TAS2R1 (Homo sapiens, UniProt Q9NYW7)
T1 construct: expressed in transfected cells; host or cells: HEK293T-Gα16gust44
T1 sequence (Q9NYW7 1-299): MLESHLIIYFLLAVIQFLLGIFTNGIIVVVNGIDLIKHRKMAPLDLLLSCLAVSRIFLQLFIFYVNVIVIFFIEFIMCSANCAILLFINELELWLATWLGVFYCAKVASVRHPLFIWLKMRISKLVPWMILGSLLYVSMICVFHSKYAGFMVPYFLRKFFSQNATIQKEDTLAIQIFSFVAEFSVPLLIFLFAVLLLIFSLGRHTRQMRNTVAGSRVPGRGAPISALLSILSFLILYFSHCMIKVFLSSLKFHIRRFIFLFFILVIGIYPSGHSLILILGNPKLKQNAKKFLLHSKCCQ
Assay: Calcium imaging assay (FLIPR), HEK293T-Gα16gust44 cells transfected with human TAS2R1
Format: cell-based
Outline: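 Calcium responses via FLIPR in receptor-transfected HEK293T-Gα16gust44 cells (Fluo-4-AM, 2.5 mM probenecid), after mock-signal subtraction and normalization to baseline and buffer (ΔF/F). Threshold concentration is the lowest dose differing from mock cells at p < 0.01 (Student's t-test), from three biological replicates in duplicate.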

Which “Efficacy = maximal amplitude (ΔF/F)” value (TAS2R1, bile acids, mean) does the source give for C[C@H](CCC(=O)NCCS(=O)(=O)O)[C@H]1CC[C@H]2[C@@H]3CC[C@@H]4C[C@H](O)CC[C@]4(C)[C@H]3CC[C@]12C [Taurolithocholic Acid, taurolithocholic acid] here?
Its value is 0.1277.

And the “Efficacy (maximal amplitude ΔF/F), individual data points” value (TAS2R1, bile acids, single replicates, listed as TLCA)?
Its value is 0.1258 and 0.1227 and 0.1699 and 0.1221 and 0.09796.

And the RLU (Time 0 s (second time grid))?
Its RLU is 0 RLU.

What about the RLU (Time 2 s) of the same molecule?
The RLU was -8.765 RLU.

What about the RLU (Time 4 s) of the same molecule?
Its RLU is 34.6882 RLU.

And the RLU (Time 6 s)?
The RLU was 11.8088 RLU.

And the RLU (Time 8 s)?
The RLU was 18.099 RLU.

And the RLU (Time 12 s)?
The RLU was 15.1496 RLU.

And the RLU (Time 14 s)?
The RLU was 13.1492 RLU.

And the RLU (Time 16 s)?
Its RLU is 0.9458 RLU.

What about the RLU (Time 18 s) of the same molecule?
The RLU was 9.703 RLU.

What about the RLU (Time 18.781 s) of the same molecule?
The RLU was 5.165 RLU.

And the RLU (Time 20.781 s)?
Its RLU is 27.2472 RLU.

What about the RLU (Time 22.781 s) of the same molecule?
Its RLU is 1.644 RLU.

And the RLU (Time 24.781 s)?
The RLU was -21.8293 RLU.

And the RLU (Time 26.781 s)?
The RLU was 33.0454 RLU.

And the RLU (Time 28.781 s)?
The RLU was 106.888 RLU.

And the RLU (Time 30.781 s)?
Its RLU is 183.135 RLU.

And the RLU (Time 32.781 s)?
The RLU was 270.143 RLU.

And the RLU (Time 34.781 s)?
Its RLU is 337.182 RLU.

And the RLU (Time 36.781 s)?
The RLU was 405.016 RLU.

What about the RLU (Time 38.781 s) of the same molecule?
Its RLU is 448.367 RLU.

What about the RLU (Time 40.781 s) of the same molecule?
The RLU was 483.096 RLU.

And the RLU (Time 42.781 s)?
The RLU was 511.157 RLU.

And the RLU (Time 44.781 s)?
Its RLU is 542.077 RLU.

And the RLU (Time 46.781 s)?
The RLU was 572.975 RLU.

What about the RLU (Time 48.781 s) of the same molecule?
Its RLU is 599.496 RLU.

What about the RLU (Time 50.781 s) of the same molecule?
Its RLU is 624.238 RLU.

What about the RLU (Time 52.781 s) of the same molecule?
The RLU was 642.403 RLU.

What about the RLU (Time 54.781 s) of the same molecule?
The RLU was 649.802 RLU.

What about the RLU (Time 56.781 s) of the same molecule?
The RLU was 680.566 RLU.

And the RLU (Time 58.781 s)?
Its RLU is 693.048 RLU.

And the RLU (Time 60.781 s)?
Its RLU is 676.887 RLU.

And the RLU (Time 62.781 s)?
The RLU was 735.967 RLU.

What about the RLU (Time 64.781 s) of the same molecule?
Its RLU is 726.535 RLU.

And the RLU (Time 66.781 s)?
The RLU was 712 RLU.

And the RLU (Time 68.781 s)?
The RLU was 708.17 RLU.

And the RLU (Time 70.781 s)?
Its RLU is 740.519 RLU.

And the RLU (Time 72.781 s)?
Its RLU is 720.827 RLU.

What about the RLU (Time 74.781 s) of the same molecule?
The RLU was 715.629 RLU.

And the RLU (Time 76.781 s)?
The RLU was 740.295 RLU.

What about the RLU (Time 78.781 s) of the same molecule?
Its RLU is 736.469 RLU.

And the RLU (Time 80.781 s)?
The RLU was 705.753 RLU.

What about the RLU (Time 82.781 s) of the same molecule?
The RLU was 719.776 RLU.

And the RLU (Time 84.781 s)?
The RLU was 729.602 RLU.

And the RLU (Time 86.781 s)?
The RLU was 717.016 RLU.

And the RLU (Time 88.781 s)?
The RLU was 708.528 RLU.

What about the RLU (Time 90.781 s) of the same molecule?
Its RLU is 685.914 RLU.

What about the RLU (Time 92.781 s) of the same molecule?
The RLU was 709.593 RLU.

And the RLU (Time 94.781 s)?
The RLU was 708.426 RLU.

What about the RLU (Time 96.781 s) of the same molecule?
The RLU was 665.125 RLU.

What about the RLU (Time 98.781 s) of the same molecule?
Its RLU is 639.76 RLU.

And the RLU (Time 100.781 s)?
Its RLU is 661.017 RLU.

What about the RLU (Time 102.781 s) of the same molecule?
The RLU was 653.391 RLU.

What about the RLU (Time 104.781 s) of the same molecule?
The RLU was 622.006 RLU.

And the RLU (Time 106.781 s)?
Its RLU is 616.277 RLU.

What about the RLU (Time 108.781 s) of the same molecule?
The RLU was 602.431 RLU.

And the RLU (Time 110.781 s)?
The RLU was 574.352 RLU.

And the RLU (Time 112.781 s)?
The RLU was 593.769 RLU.

What about the RLU (Time 114.781 s) of the same molecule?
The RLU was 553.55 RLU.

What about the RLU (Time 116.781 s) of the same molecule?
Its RLU is 583.964 RLU.

And the RLU (Time 118.781 s)?
The RLU was 539.304 RLU.

And the RLU (Time 120.781 s)?
Its RLU is 524.165 RLU.

What about the RLU (Time 122.781 s) of the same molecule?
Its RLU is 518.27 RLU.

And the RLU (Time 124.781 s)?
Its RLU is 503.611 RLU.

What about the RLU (Time 126.781 s) of the same molecule?
The RLU was 474.132 RLU.

What about the RLU (Time 128.781 s) of the same molecule?
Its RLU is 435.021 RLU.

What about the RLU (Time 130.781 s) of the same molecule?
The RLU was 439.84 RLU.

And the RLU (Time 132.781 s)?
Its RLU is 420.045 RLU.

And the RLU (Time 134.781 s)?
The RLU was 393.577 RLU.

And the RLU (Time 136.781 s)?
The RLU was 395.556 RLU.

What about the RLU (Time 137.547 s) of the same molecule?
Its RLU is 402.14 RLU.

What about the RLU (Time 143.547 s) of the same molecule?
The RLU was 371.698 RLU.

What about the RLU (Time 149.547 s) of the same molecule?
The RLU was 331.65 RLU.

What about the RLU (Time 155.547 s) of the same molecule?
Its RLU is 280.988 RLU.

What about the RLU (Time 161.547 s) of the same molecule?
Its RLU is 237.537 RLU.

What about the RLU (Time 167.547 s) of the same molecule?
Its RLU is 191.55 RLU.

What about the RLU (Time 173.547 s) of the same molecule?
The RLU was 185.568 RLU.

And the RLU (Time 179.547 s)?
Its RLU is 137.711 RLU.

What about the RLU (Time 185.547 s) of the same molecule?
Its RLU is 105.562 RLU.

And the RLU (Time 191.547 s)?
Its RLU is 24.299 RLU.

What about the RLU (Time 197.547 s) of the same molecule?
The RLU was 1.672 RLU.

What about the RLU (Time 203.547 s) of the same molecule?
Its RLU is -7.55 RLU.

What about the RLU (Time 209.547 s) of the same molecule?
The RLU was -39.8614 RLU.

And the RLU (Time 215.547 s)?
The RLU was -81.387 RLU.

What about the RLU (Time 221.547 s) of the same molecule?
Its RLU is -74.4232 RLU.

What about the RLU (Time 227.547 s) of the same molecule?
The RLU was -79.2952 RLU.

What about the RLU (Time 233.547 s) of the same molecule?
Its RLU is -69.562 RLU.

What about the RLU (Time 239.547 s) of the same molecule?
The RLU was -81.6561 RLU.

What about the RLU (Time 245.547 s) of the same molecule?
Its RLU is -72.3962 RLU.

What about the RLU (Time 293.547 s) of the same molecule?
Its RLU is -154.558 RLU.

And the RLU (Time 299.547 s)?
The RLU was -170.989 RLU.

And the RLU (calcium trace, sheet TAS2R1, Time 305.547 s)?
Its RLU is -184.97 RLU.

And the RLU (calcium trace, sheet TAS2R1, Time 311.547 s)?
The RLU was -208.123 RLU.

And the RLU (calcium trace, sheet TAS2R1, Time 317.547 s)?
The RLU was -201.311 RLU.

What about the RLU (calcium trace, sheet TAS2R1, Time 323.547 s) of the same molecule?
The RLU was -236.998 RLU.

And the RLU (calcium trace, sheet TAS2R1, Time 329.547 s)?
Its RLU is -230.646 RLU.

And the RLU (calcium trace, sheet TAS2R1, Time 335.547 s)?
The RLU was -241.48 RLU.

And the RLU (calcium trace, sheet TAS2R1, Time 341.547 s)?
The RLU was -222.174 RLU.

And the RLU (calcium trace, sheet TAS2R1, Time 347.547 s)?
Its RLU is -215.316 RLU.

What about the RLU (calcium trace, sheet TAS2R1, Time 353.547 s) of the same molecule?
Its RLU is -228.211 RLU.

And the RLU (calcium trace, sheet TAS2R1, Time 359.547 s)?
The RLU was -233.286 RLU.

And the EC50 (calculated where receptor saturation was reached)?
Its EC50 is 1900 nM.

And the “Activation threshold concentration TAS2R1” value (lowest concentration with significantly increased fluorescence vs empty vector (p < 0.01))?
Its value is 0.3 µM and 0.30 µM.

From paper PMC10247784, “Physiological activation of human and mouse bitter taste receptors by bile acids” (Communications Biology, 2023)
